Reference: PubChem BioAssay AID248 (DTP/NCI, 2004)
Values joined by “and” are separate entries in the source; they are usually repeats but may differ in a detail not shown here. Identical values can stand only once. Toxic doses and inconclusive results are not listed.

System: L1210 leukemia ip in BDF1 mice, survival T/C
Experiment: NCI In Vivo Anticancer Drug Screen. Data for tumor model L1210 Leukemia (intraperitoneal) in B6D2F1 (BDF1) mice
Details: higher = longer survival
Summary of the method: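 Antitumor effect is assessed in tumor-bearing animals. Survival in the compound arm is compared with a vehicle-dosed control arm and expressed as their quotient.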

`COc1cc2c(c(OC)c1OC)-c1ccc(OC)c(=O)cc1[C@@H](NC(C)=O)CC2` was tested, and the T/C (endpoint: mean survival time, dose: 0.01 mg/kg/injection, schedule: Q01DX010 (ip), vehicle: saline) was 96 % of control and 97 % of control, the T/C (endpoint: mean survival time, dose: 0.02 mg/kg/injection, schedule: Q01DX010 (ip), vehicle: saline) was 93 % of control and 103 % of control and the T/C (endpoint: mean survival time, dose: 0.04 mg/kg/injection, schedule: Q01DX010 (ip), vehicle: saline) was 102 % of control and 103 % of control. The T/C (endpoint: mean survival time, dose: 0.06 mg/kg/injection, schedule: Q01DX015 (ip), vehicle: saline) was 98 % of control, the T/C (endpoint: mean survival time, dose: 0.08 mg/kg/injection, schedule: Q01DX010 (ip), vehicle: saline) was 102 % of control and 115 % of control and the T/C (endpoint: mean survival time, dose: 0.09 mg/kg/injection, schedule: Q01DX015 (ip), vehicle: saline) was 100 % of control. For the same compound, the T/C (endpoint: mean survival time, dose: 0.09 mg/kg/injection, schedule: Q02DX008 (ip), vehicle: saline) was 97 % of control, the T/C (endpoint: mean survival time, dose: 0.1 mg/kg/injection, schedule: Q## X032 (ip), vehicle: saline) was 98 % of control and the T/C (endpoint: mean survival time, dose: 0.13 mg/kg/injection, schedule: Q01DX009 (ip), vehicle: saline) was 110 % of control. The T/C (endpoint: mean survival time, dose: 0.13 mg/kg/injection, schedule: Q01DX015 (ip), vehicle: saline) was 104 % of control, the T/C (endpoint: mean survival time, dose: 0.13 mg/kg/injection, schedule: Q02DX008 (ip), vehicle: saline) was 97 % of control and the T/C (endpoint: mean survival time, dose: 0.16 mg/kg/injection, schedule: Q## X032 (ip), vehicle: saline) was 97 % of control. For the same compound, the T/C (endpoint: mean survival time, dose: 0.2 mg/kg/injection, schedule: Q01DX015 (ip), vehicle: saline) was 113 % of control, the T/C (endpoint: mean survival time, dose: 0.2 mg/kg/injection, schedule: Q02DX008 (ip), vehicle: saline) was 103 % of control and the T/C (endpoint: mean survival time, dose: 0.24 mg/kg/injection, schedule: Q## X032 (ip), vehicle: saline) was 100 % of control. The T/C (endpoint: mean survival time, dose: 0.25 mg/kg/injection, schedule: Q01DX005 (oral), vehicle: saline) was 102 % of control, the T/C (endpoint: mean survival time, dose: 0.25 mg/kg/injection, schedule: Q01DX009 (ip), vehicle: saline) was 113 % of control and the T/C (endpoint: mean survival time, dose: 0.25 mg/kg/injection, schedule: Q04DX003 (ip), vehicle: saline) was 121 % of control. For the same compound, the T/C (endpoint: mean survival time, dose: 0.3 mg/kg/injection, schedule: Q01DX015 (ip), vehicle: saline) was 117 % of control, the T/C (endpoint: mean survival time, dose: 0.3 mg/kg/injection, schedule: Q02DX008 (ip), vehicle: saline) was 106 % of control and the T/C (endpoint: mean survival time, dose: 0.36 mg/kg/injection, schedule: Q## X032 (ip), vehicle: saline) was 102 % of control. For the same compound, the T/C (endpoint: mean survival time, dose: 0.45 mg/kg/injection, schedule: Q02DX008 (ip), vehicle: saline) was 120 % of control, the T/C (endpoint: mean survival time, dose: 0.5 mg/kg/injection, schedule: Q01DX001 (iv), vehicle: saline) was 93 % of control and the T/C (endpoint: mean survival time, dose: 0.5 mg/kg/injection, schedule: Q01DX005 (oral), vehicle: saline) was 101 % of control. For the same compound, the T/C (endpoint: mean survival time, dose: 0.5 mg/kg/injection, schedule: Q01DX009 (ip), vehicle: saline) was 108 % of control, the T/C (endpoint: mean survival time, dose: 0.5 mg/kg/injection, schedule: Q04DX003 (ip), vehicle: saline) was 116 % of control and the T/C (endpoint: mean survival time, dose: 0.5 mg/kg/injection, schedule: Q## X032 (ip), vehicle: saline) was 105 % of control. The T/C (endpoint: mean survival time, dose: 0.54 mg/kg/injection, schedule: Q04DX004 (ip), vehicle: saline) was 112 % of control, the T/C (endpoint: mean survival time, dose: 0.54 mg/kg/injection, schedule: Q## X032 (ip), vehicle: saline) was 105 % of control and the T/C (endpoint: mean survival time, dose: 0.6 mg/kg/injection, schedule: Q## X004 (ip), vehicle: saline) was 112 % of control. For the same compound, the T/C (endpoint: mean survival time, dose: 0.8 mg/kg/injection, schedule: Q04DX004 (ip), vehicle: saline) was 114 % of control, the T/C (endpoint: mean survival time, dose: 0.8 mg/kg/injection, schedule: Q## X032 (ip), vehicle: saline) was 114 % of control and the T/C (endpoint: mean survival time, dose: 0.9 mg/kg/injection, schedule: Q## X004 (ip), vehicle: saline) was 114 % of control. The T/C (endpoint: mean survival time, dose: 1.0 mg/kg/injection, schedule: Q01DX001 (iv), vehicle: saline) was 97 % of control, the T/C (endpoint: mean survival time, dose: 1.0 mg/kg/injection, schedule: Q01DX005 (oral), vehicle: saline) was 100 % of control and the T/C (endpoint: mean survival time, dose: 1.0 mg/kg/injection, schedule: Q01DX009 (ip), vehicle: saline) was 122 % of control. For the same compound, the T/C (endpoint: mean survival time, dose: 1.0 mg/kg/injection, schedule: Q04DX003 (ip), vehicle: saline) was 104 % of control, the T/C (endpoint: mean survival time, dose: 1.2 mg/kg/injection, schedule: Q04DX004 (ip), vehicle: saline) was 116 % of control and the T/C (endpoint: mean survival time, dose: 1.25 mg/kg/injection, schedule: Q01DX001 (ip), vehicle: saline) was 101 % of control and 114 % of control and 123 % of control. The T/C (endpoint: mean survival time, dose: 1.3 mg/kg/injection, schedule: Q## X004 (ip), vehicle: saline) was 121 % of control, the T/C (endpoint: mean survival time, dose: 1.6 mg/kg/injection, schedule: Q## X032 (ip), vehicle: saline) was 124 % of control and the T/C (endpoint: mean survival time, dose: 2.0 mg/kg/injection, schedule: Q01DX001 (iv), vehicle: saline) was 107 % of control. For the same compound, the T/C (endpoint: mean survival time, dose: 2.0 mg/kg/injection, schedule: Q01DX001 (oral), vehicle: saline) was 91 % of control, the T/C (endpoint: mean survival time, dose: 2.0 mg/kg/injection, schedule: Q01DX005 (oral), vehicle: saline) was 92 % of control and the T/C (endpoint: mean survival time, dose: 2.0 mg/kg/injection, schedule: Q## X004 (ip), vehicle: saline) was 156 % of control. For the same compound, the T/C (endpoint: mean survival time, dose: 2.5 mg/kg/injection, schedule: Q01DX001 (ip), vehicle: saline) was 118 % of control and 124 % of control, the T/C (endpoint: mean survival time, dose: 3.6 mg/kg/injection, schedule: Q## X032 (ip), vehicle: saline) was 102 % of control and the T/C (endpoint: mean survival time, dose: 4.0 mg/kg/injection, schedule: Q01DX001 (iv), vehicle: saline) was 97 % of control. For the same compound, the T/C (endpoint: mean survival time, dose: 4.0 mg/kg/injection, schedule: Q01DX001 (oral), vehicle: saline) was 100 % of control, the T/C (endpoint: mean survival time, dose: 4.0 mg/kg/injection, schedule: Q08DX002 (ip), vehicle: saline) was 108 % of control and the T/C (endpoint: mean survival time, dose: 5.0 mg/kg/injection, schedule: Q01DX001 (ip), vehicle: saline) was 94 % of control and 118 % of control. For the same compound, the T/C (endpoint: mean survival time, dose: 8.0 mg/kg/injection, schedule: Q01DX001 (oral), vehicle: saline) was 92 % of control, the T/C (endpoint: mean survival time, dose: 31.2 micrograms/kg/injection, schedule: Q03HX024 (ip), vehicle: saline) was 97 % of control and the T/C (endpoint: mean survival time, dose: 62.5 micrograms/kg/injection, schedule: Q01DX005 (iv), vehicle: saline) was 100 % of control. For the same compound, the T/C (endpoint: mean survival time, dose: 62.5 micrograms/kg/injection, schedule: Q01DX009 (ip), vehicle: saline) was 101 % of control, the T/C (endpoint: mean survival time, dose: 62.5 micrograms/kg/injection, schedule: Q03HX016 (ip), vehicle: saline) was 102 % of control and the T/C (endpoint: mean survival time, dose: 62.5 micrograms/kg/injection, schedule: Q03HX024 (ip), vehicle: saline) was 104 % of control. The T/C (endpoint: mean survival time, dose: 125.0 micrograms/kg/injection, schedule: Q01DX005 (iv), vehicle: saline) was 98 % of control, the T/C (endpoint: mean survival time, dose: 125.0 micrograms/kg/injection, schedule: Q01DX009 (ip), vehicle: saline) was 115 % of control and the T/C (endpoint: mean survival time, dose: 125.0 micrograms/kg/injection, schedule: Q03HX008 (ip), vehicle: saline) was 123 % of control. For the same compound, the T/C (endpoint: mean survival time, dose: 125.0 micrograms/kg/injection, schedule: Q03HX016 (ip), vehicle: saline) was 107 % of control, the T/C (endpoint: mean survival time, dose: 125.0 micrograms/kg/injection, schedule: Q03HX024 (ip), vehicle: saline) was 109 % of control and the T/C (endpoint: mean survival time, dose: 250.0 micrograms/kg/injection, schedule: Q01DX005 (iv), vehicle: saline) was 98 % of control. For the same compound, the T/C (endpoint: mean survival time, dose: 250.0 micrograms/kg/injection, schedule: Q03HX016 (ip), vehicle: saline) was 121 % of control, the T/C (endpoint: mean survival time, dose: 250.0 micrograms/kg/injection, schedule: Q03HX024 (ip), vehicle: saline) was 96 % of control and the T/C (endpoint: mean survival time, dose: 500.0 micrograms/kg/injection, schedule: Q01DX005 (iv), vehicle: saline) was 100 % of control. The T/C (endpoint: mean survival time, dose: 1000.0 micrograms/kg/injection, schedule: Q01DX005 (iv), vehicle: saline) was 107 % of control, the T/C (endpoint: mean survival time, dose: 1000.0 micrograms/kg/injection, schedule: Q01DX009 (ip), vehicle: saline) was 87 % of control and the T/C (endpoint: median survival time, dose: 0.02 mg/kg/injection, schedule: Q01DX009 (ip), vehicle: saline) was 93 % of control and 100 % of control. The T/C (endpoint: median survival time, dose: 0.04 mg/kg/injection, schedule: Q01DX009 (ip), vehicle: saline) was 100 % of control, the T/C (endpoint: median survival time, dose: 0.08 mg/kg/injection, schedule: Q01DX009 (ip), vehicle: saline) was 106 % of control and 111 % of control and the T/C (endpoint: median survival time, dose: 0.16 mg/kg/injection, schedule: Q01DX009 (ip), vehicle: saline) was 112 % of control.
`CCCCCCCCCCCCCCCCC1(c2ccccc2)NC(=O)NC1=O` (centres undefined) was tested, and the T/C (endpoint: mean survival time, dose: 100.0 mg/kg/injection, schedule: Q04DX003 (ip), vehicle: Klucel (hydroxypropylcellulose) (HPC)) was 93 % of control, the T/C (endpoint: mean survival time, dose: 200.0 mg/kg/injection, schedule: Q04DX003 (ip), vehicle: Klucel (hydroxypropylcellulose) (HPC)) was 95 % of control and the T/C (endpoint: mean survival time, dose: 400.0 mg/kg/injection, schedule: Q04DX003 (ip), vehicle: Klucel (hydroxypropylcellulose) (HPC)) was 98 % of control.
`N#Cc1csc(CCNC(=O)c2ccccc2)n1` was tested, and the T/C (endpoint: mean survival time, dose: 100.0 mg/kg/injection, schedule: Q01DX001 (ip), vehicle: saline with Tween-80) was 105 % of control, the T/C (endpoint: mean survival time, dose: 100.0 mg/kg/injection, schedule: Q04DX003 (ip), vehicle: saline with Tween-80) was 100 % of control and the T/C (endpoint: mean survival time, dose: 200.0 mg/kg/injection, schedule: Q01DX001 (ip), vehicle: saline with Tween-80) was 104 % of control. For the same compound, the T/C (endpoint: mean survival time, dose: 200.0 mg/kg/injection, schedule: Q04DX003 (ip), vehicle: saline with Tween-80) was 93 % of control, the T/C (endpoint: mean survival time, dose: 400.0 mg/kg/injection, schedule: Q01DX001 (ip), vehicle: saline with Tween-80) was 93 % of control and the T/C (endpoint: mean survival time, dose: 400.0 mg/kg/injection, schedule: Q04DX003 (ip), vehicle: saline with Tween-80) was 94 % of control.
In the case of `O=C(O)C1=C(C2CCCCC2)C(=O)c2ccccc21`, the T/C (endpoint: mean survival time, dose: 75.0 mg/kg/injection, schedule: Q01DX001 (ip), vehicle: other) is reported as 112 % of control, the T/C (endpoint: mean survival time, dose: 150.0 mg/kg/injection, schedule: Q01DX001 (ip), vehicle: other) is reported as 93 % of control and the T/C (endpoint: mean survival time, dose: 300.0 mg/kg/injection, schedule: Q01DX001 (ip), vehicle: other) is reported as 102 % of control.
